Where no end group is shown, it is not given here. [ ]: non-standard residue; d: D form. Oic = O=C(O)[C@@H]1C[C@@H]2CCCC[C@@H]2N1; Hyp = O=C(O)[C@@H]1C[C@@H](O)CN1; dTic = O=C(O)[C@H]1Cc2ccccc2CN1; 2Thi = N[C@@H](Cc1cccs1)C(=O)O
Assays:
[1] = target: T1, bradykinin type 2 (BK2) receptors (Rattus norvegicus, UniProt P25023); experiment: standard rat uterus pA2 assay (in vitro B2 antagonist activity); settings: for % Recovery: recovery of agonist response after washing 40 minutes following highest antagonist concentration; for activity in rat uterus functional tissue assay: summary of Table 1; for B2 pA2 (Rat Uterus): antagonist preincubated for 15 minutes
T1 construct: Uterine horns were removed, placed under a 1 g resting tension in 4 mL tissue baths; from tissue; host or cells: rat uterine horns (Sprague-Dawley, stilbesterol-pretreated)
T1 sequence (P25023 1-396): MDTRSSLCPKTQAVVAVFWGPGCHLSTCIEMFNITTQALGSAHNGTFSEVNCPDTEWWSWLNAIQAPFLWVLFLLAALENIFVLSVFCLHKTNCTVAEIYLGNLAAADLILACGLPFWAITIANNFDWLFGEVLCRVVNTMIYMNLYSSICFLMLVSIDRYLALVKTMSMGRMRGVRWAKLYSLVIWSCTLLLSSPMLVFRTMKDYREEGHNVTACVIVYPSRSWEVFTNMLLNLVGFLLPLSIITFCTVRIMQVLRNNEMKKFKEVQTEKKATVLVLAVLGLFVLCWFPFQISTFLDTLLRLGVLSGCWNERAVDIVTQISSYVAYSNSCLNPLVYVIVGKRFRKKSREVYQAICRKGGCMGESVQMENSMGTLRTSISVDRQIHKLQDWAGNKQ
Method: The standard rat uterus pA2 assay was conducted as follows:
Female Sprague-Dawley rats (200-250 g) were pretreated with stilbesterol (100 μg/kg) and killed 18 hours later by a blow on the head and exsanguinated. Uterine horns were removed, placed under a 1 g resting tension in 4 mL tissue baths containing De Jalon's solution at 31° C. and aerated. […] Antagonist potency was calculated according to the method of Arunlakshana and Schild (Arunlakshana, O., Schild, H. O., Br. J. Pharmacology 14 48-58 (1959)). […] The difference in pD2 values compared to concurrent control reflected the "percentage recovery" of agonist response.

[2] = target: T2, bradykinin type 2 (BK2) receptors (Cavia porcellus, UniProt O70526); experiment: antagonist binding to guinea pig ileum (tritium labeled bradykinin)
T2 construct: from tissue; host or cells: guinea pig ileum membrane preparation (Hartley strain)
T2 sequence (O70526 1-372): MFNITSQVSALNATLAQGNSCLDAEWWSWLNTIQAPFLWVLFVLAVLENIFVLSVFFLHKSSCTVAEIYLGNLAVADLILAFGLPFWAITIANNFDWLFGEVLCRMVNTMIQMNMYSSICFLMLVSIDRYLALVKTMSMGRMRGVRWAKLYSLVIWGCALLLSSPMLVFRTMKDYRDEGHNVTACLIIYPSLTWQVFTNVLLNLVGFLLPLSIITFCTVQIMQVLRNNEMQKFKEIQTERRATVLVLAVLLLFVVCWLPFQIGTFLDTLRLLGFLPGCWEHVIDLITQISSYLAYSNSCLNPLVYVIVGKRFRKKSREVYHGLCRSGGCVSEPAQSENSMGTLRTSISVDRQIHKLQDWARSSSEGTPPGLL
Method: Radioactivity was determined by liquid scintillation counting.

in vitro = settings: pig, lung membranes, pH 7.2
Method: (§1) Rat or porcine lung and kidney cortical membranes were prepared using differential centrifugation as described by Skidgel (Booth, A. G. et al., Biochemical Journal 142, 575-581 (1974)) for lung or by Booth (Erdos, E. G. et al., Biochemical Pharmacology 33 3471-3478 (1984)) for kidney. Membrane preparations were stored at -20° C. […] Ten microliters of this working solution were delivered into a series of Eppendorf tubes, followed by human or guinea pig plasma (90 μL) or PBS as a control blank, and incubated for various time periods. At each time point the reaction was quenched with the addition of 100 μL 1N HCl in either acetonitrile or ethanol. Samples were allowed to stand approximately fifteen minutes and were then spun at 14,000 rpm for 10 minutes. Supernatant fractions were removed, filtered through 0.22 μM filters (Millipore) and analyzed by HPLC (C18, 12-80% acetonitrile in water, both containing 0.1% trifluoroacetic acid, monitoring at 214 nm.
(§2) Porcine kidney lung preparations were diluted 1:10 with PBS; rat kidney preparations were diluted 1:100 with PBS; porcine lung preparations were diluted 1:1 in PBS. […] At various time points the reactions were quenched by the addition of 100 μL of ethanol, centrifuged and analyzed by HPLC as described above. The half-life for the disappearance of the HPLC peak was determined using the computer program ENZFIT (Elsevier).

[3] = stability in porcine kidney cortical membranes; assay type: in vitro ADME; settings: pig, pH 7.2, porcine kidney preparation
Method: as §1, §2

[4] = target: T3, bradykinin type 1 (BK1) receptors (Oryctolagus cuniculus, UniProt P48748); experiment: rabbit aorta in vitro B1 antagonist activity; settings: reversal of des-Arg9-bradykinin contraction of rabbit aorta strips
T3 construct: Spiral strips were mounted under 2 g resting tension in 5 mL tissue baths; from tissue; host or cells: rabbit thoracic aorta spiral strips (New Zealand White)
T3 sequence (P48748 1-352): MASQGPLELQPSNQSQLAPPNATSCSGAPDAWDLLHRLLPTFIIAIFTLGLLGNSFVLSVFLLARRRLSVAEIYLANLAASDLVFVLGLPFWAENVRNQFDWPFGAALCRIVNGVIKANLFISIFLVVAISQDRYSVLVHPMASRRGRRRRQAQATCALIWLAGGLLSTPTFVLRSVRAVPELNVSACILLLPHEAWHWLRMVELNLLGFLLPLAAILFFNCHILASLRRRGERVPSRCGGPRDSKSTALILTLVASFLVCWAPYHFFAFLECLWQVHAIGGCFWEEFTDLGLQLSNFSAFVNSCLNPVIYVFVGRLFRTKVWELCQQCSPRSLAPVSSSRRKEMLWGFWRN
Method: Female New Zealand White rabbits were killed by overdose of pentobarbital (80 mg/kg i.v.) and the thoracic aorta removed. […] Two concentration-effect curves for des-Arg^9 -bradykinin were constructed at 1 and 3 hours. At five hours des-Arg^9 -bradykinin was added to the bath to a final concentration of […]. This produced stable, sustained and prolonged contractions of up to 45 minutes.

Row | Substance | % Recovery [1] | activity in rat uterus functional tissue assay [1] | other results
1 | D-Arg-Arg-Pro-Hyp-Gly-Thi-Ser-DTic-NChg [Compound 2] | 0% | – | –
2 | D-Arg-Arg-Hyp-Hyp-Gly-Thi-Ser-D-Tic-NChg-Arg [Compound 17] | 60% | highly potent antagonists | –
3 | [dR]RP[Hyp][2Thi]GS[dTic][Oic]R [CP-0589, reference compound] | 57% | – | –
4 | D-Arg-Arg-Pro-Hyp-Gly-Thi-Ser-D-NBng-NChg-Arg [Compound 7] | – | agonists | B2 pA2 (Rat Uterus) [1]: Agonist
5 | D-Arg-Arg-Pro-Hyp-Gly-Thi-Ser-NPeg-Oic-Arg [Compound 11] | – | agonists | B2 pA2 (Rat Uterus) [1]: Agonist
6 | RPPGFSPFR [Bradykinin, Arg^1 -Pro^2 -Pro^3 -Gly^4 -Phe^5 -Ser^6 -Pro^7 -Phe^8 -Arg^9] | – | – | Ki [2]: 0.0301 nM; half-life at 100 µM (in vitro): 3 min; half-life at 100 µM [3]: 3 min
7 | δ-Gpa-Arg-Pro-Hyp-Gly-Thi-Ser-D-Tic-NChg-Arg [Compound 13] | 66% | highly potent antagonists | –
8 | D-Arg-Arg-Pro-Hyp-Gly-Thi-Ser-D-Tic-NCpg-Arg [Compound 8] | 56% | highly potent antagonists | –
9 | D-Arg-Arg-Pro-Hyp-Gly-Thi-Ser-D-Phe-NChg-Arg [Compound 9] | 87% | – | –
10 | D-Arg-Arg-Pro-Hyp-Gly-Thi-Ser-NBng-Oic [Compound 1] | 32% | – | –
11 | D-Arg-Arg-Pro-Hyp-Gly-Thi-Ser-Igl*-NChg-Arg [Compound 3] | 100% | – | –
12 | D-Arg-Arg-Pro-Hyp-Gly-Thi-Ser-Igl*-NChg-Arg [Compound 4] | – | agonists | B2 pA2 (Rat Uterus) [1]: Agonist
13 | D-Arg-Arg-Pro-Hyp-Gly-Thi-Ser-D-NBng-Oic-Arg [Compound 6] | 93% | – | –
14 | [dR]RP[Hyp]GGS[dTic][Oic]R [CP-0601, reference compound] | 75% | – | –
15 | D-Arg-Arg-Pro-Hyp-Gly-Thi-Ser-D-Tic-Oic-Arg [HOE-140, reference compound] | 41% | – | B1 (Rabbit Aorta) [4]: Inactive
16 | D-Arg-Arg-Pro-Hyp-Gly-Thi-Ser-D-Phe-NPhg-Arg [Compound 16] | 60% | – | –
17 | D-Arg-Arg-Pro-Hyp-Gly-Thi-Ser-D-Cpg-NChg-Arg [Compound 10] | 75% | – | –
18 | δ-Gpa-Pro-Hyp-Gly-Thi-Ser-D-Tic-NChg-Arg [Compound 14] | 81% | – | –
19 | D-Arg-Arg-Pro-Hyp-Gly-Thi-Ser-D-Tic-NPhg-Arg [Compound 15] | 54% | highly potent antagonists | –
